{
  "source": "patent US20230147257A1",
  "about": "(DONG-A ST CO., LTD., priority 2020, published 2023)",
  "key": {"AhR [1]": {"target": "T1, AhR (Homo sapiens, UniProt P35869)", "T1 construct": "host or cells: HepG2", "T1 sequence (P35869 11-848)": "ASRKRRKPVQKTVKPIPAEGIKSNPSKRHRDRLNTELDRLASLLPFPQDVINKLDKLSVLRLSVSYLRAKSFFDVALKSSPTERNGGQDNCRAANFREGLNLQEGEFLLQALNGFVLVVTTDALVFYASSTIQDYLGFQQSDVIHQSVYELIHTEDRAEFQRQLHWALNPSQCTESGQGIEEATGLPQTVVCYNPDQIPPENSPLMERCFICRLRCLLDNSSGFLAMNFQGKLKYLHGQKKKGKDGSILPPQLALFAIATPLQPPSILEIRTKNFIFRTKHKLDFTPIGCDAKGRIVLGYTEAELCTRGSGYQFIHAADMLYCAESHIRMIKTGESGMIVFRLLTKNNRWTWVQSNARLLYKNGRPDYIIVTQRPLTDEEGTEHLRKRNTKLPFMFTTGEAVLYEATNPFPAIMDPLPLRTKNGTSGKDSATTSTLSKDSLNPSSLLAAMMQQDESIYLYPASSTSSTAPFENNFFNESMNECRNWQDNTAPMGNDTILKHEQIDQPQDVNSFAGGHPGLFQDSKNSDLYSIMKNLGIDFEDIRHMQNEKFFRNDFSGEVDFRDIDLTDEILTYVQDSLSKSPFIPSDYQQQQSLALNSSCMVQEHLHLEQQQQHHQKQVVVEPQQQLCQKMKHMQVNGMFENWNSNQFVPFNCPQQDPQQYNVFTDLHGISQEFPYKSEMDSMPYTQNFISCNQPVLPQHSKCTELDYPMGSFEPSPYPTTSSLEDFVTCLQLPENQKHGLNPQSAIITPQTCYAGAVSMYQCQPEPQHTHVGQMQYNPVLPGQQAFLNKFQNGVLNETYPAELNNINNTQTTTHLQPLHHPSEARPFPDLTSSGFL", "assay": "In vitro assay 1: XRE-luciferase reporter assay, antagonism in human cell line (HepG2)", "assay_type": "cell-based", "conditions": "HepG2 XRE-luciferase, cells treated with kynurenine 200 μM (no *), 6 hours; read-out: Assay 1: AhR-Luc Human Antagonism (IC50)", "outline": "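HepG2 cells carrying XRE-firefly luciferase (transient or stable) plus constitutive Nano-Luc control, stimulated 6 h with kynurenine (50 or 200 μM) with or without compound. Firefly/Nano-Luc ratio normalized to kynurenine-alone (maximum) and vehicle (minimum); IC50 by four-parameter nonlinear regression.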"}, "AhR [2]": {"target": "T1, AhR", "assay": "In vitro assay 4: endogenous AhR activity assay (CYP1A1 and CYP1B1 mRNA, qRT-PCR, HepG2 cells)", "assay_type": "cell-based", "conditions": "TCDD 10 nM with compound 123 nM, 4 hours, mRNA relative to β-actin", "experimental": "In Vitro Assay 4: Endogenous AhR Activity Assay\nHepG2 cells were seeded in 12-well plate (3×10^5 cells/well). A day after seeding, the cells were treated with TCDD (10 nM) alone or with compounds (123 nM) for 4 hours. Total RNA was extracted using Trizol (Thermo Fisher Scientific). cDNA synthesis and quantitative RT-PCR (qRT-PCR) assays were performed using PrimeScript™ RT Master Mix (TAKARA) and TB Green™ Premix Ex Taq™ II (TAKARA) in accordance with manufacturer's instruction. For the measurement of endogenous AhR activity, relative mRNA levels of CYP1A1 and CYP1B1 were quantitated relative to β(beta)-actin mRNA by the comparative Ct (ΔΔCt) method. The percent inhibitions were calculated according to: […]"}},
  "note": "Read-outs that look alike come from different tables or passages of the source.",
  "data": [
    {"smiles": "CC(CO)n1cnc2c(-c3cccnc3)nc(-c3ccc(Cl)cc3)cc2c1=O", "note": "(stereo not drawn) [Example 46, 6-(4-chlorophenyl)-3-(1-hydroxypropan-2-yl)-8-(pyridin-3-yl)pyrido[3,4-d]pyrimidin-4(3H)-one]", "values": [
      {"measurement": "IC50", "setting": "AhR [1]", "result": "< 10", "unit": "nM"},
      {"measurement": "inhibition at 0.123 µM", "setting": "AhR [2]; read-out: CYP1A1 (% Inhibition)", "result": 90.7, "unit": "%"},
      {"measurement": "inhibition at 0.123 µM", "setting": "AhR [2]; read-out: CYP1B1 (% Inhibition)", "result": 99.1, "unit": "%"}
    ]}
  ]
}
